Assays:
Assay in all cases: Morphological assessment of vacuolization
Assay type in all cases: cell-based
[1] = system: BT-20 (triple negative breast cancer)
[2] = system: U-251 (glioblastoma)
[3] = system: HCT-116 (colon cancer)
Description: The methuophagy inducing activities of BAPT-27 were also prominent in different colon cancer cell lines with different genetic profiles. […] (FIG. 42). However, the vacuoles formation was not prominent in normal epithelial colon cells (CRL-1459). (FIG. 42).

Measured: vacuolization

Cc1[nH]c2ccccc2c1-c1nn2c(-c3ccncc3)nnc2s1 [BAPT-36]
dose dependent vacuolization: all assays above
